In patent US20200347033A1, “MODULATORS OF THE INTEGRATED STRESS PATHWAY” (Calico Life Sciences LLC, priority 2017, published 2020):

System: HEK293T cells carrying the ATF4 luciferase reporter
Assay: ATF4-Luc assay (in vitro model of vanishing white matter disease)
Format: cell-based, human
Settings: HEK293T cells with ATF4 5'-UTR firefly luciferase reporter; 1 μg/mL tunicamycin; 7 hours; One Glo luminescence
Protocol: In order to test exemplary compounds of the invention in a cellular context, a stable VWMD cell line was first constructed. The ATF4 reporter was prepared by fusing the human full-length ATF4 5′-UTR (NCBI Accession No. BC022088.2) in front of the firefly luciferase (FLuc) coding sequence lacking the initiator methionine as described in Sidrauski et al (eLife 2013). The construct was used to produce recombinant retroviruses using standard methods and the resulting viral supernatant was used to transduce HEK293T cells, which were then subsequently selected with puromycin to generate a stable cell line.
HEK293T cells carrying the ATF4 luciferase reporter were plated on polylysine coated 384-well plates (Greiner Bio-one) at 30,000 cells per well. Cells were treated the next day with 1 μg/mL tunicamycin and 200 nM of a compound of Formula (I) for 7 hours. Luminescence was measured using One Glo (Promega) as specified by the manufacturer. Cells were maintained in DMEM with L-glutamine supplemented with 10% heat-inactivated FBS (Gibco) and Antibiotic-Antimycotic solution (Gibco).
Table 2 below summarizes the EC50 data obtained using the ATF4-Luc assay for exemplary compounds of the invention.

| Molecule | EC50 |
| --- | --- |
| 2-(4-chloro-3-fluorophenoxy)-N-[3-(5-chloro-1-hydroxy-3-oxo-1,3-dihydro-2H-isoindol-2-yl)bicyclo[1.1.1]pentan-1-yl]acetamide and 2-(4-chloro-3-fluorophenoxy)-N-[3-(5-chloro-3-hydroxy-1-oxo-,3-dihydro-2H-isoindol-2-yl)bicyclo[1.1.1]pentan-1-yl]acetamide [Compound 153] | > 2000 nM |

Same assay, conditions: Homo sapiens, HEK-293T; HEK293T cells with ATF4 5'-UTR firefly luciferase reporter; 1 μg/mL tunicamycin; 7 hours; One Glo luminescence

| Molecule | EC50 |
| --- | --- |
| O=C(COc1ccc(Cl)c(F)c1)NC12CC(N3CC[C@@H](Oc4ccc(Cl)cc4)C3=O)(C1)C2 (single isomer, unassigned) [Compound 102] | 250 to 1000 nM |
| O=C(COc1ccc(Cl)c(F)c1)NC12CC(N3CC[C@H](Oc4ccc(Cl)cc4)C3=O)(C1)C2 (single isomer, unassigned) [Compound 103] | 50 to 250 nM |
| O=C(COc1ccc(Cl)c(F)c1)NC12CC(N3C(=O)c4cc(Cl)ccc4[C@@H]3O)(C1)C2 (single isomer, unassigned) [Compound 148, 2-(4-chloro-3-fluorophenoxy)-N-{3-[(1)-5-chloro-1-hydroxy-3-oxo-1,3-dihydro-2H-isoindol-2-yl]bicyclo[1.1.1]pentan-1-yl}acetamide] | > 2000 nM |
| O=C(COc1ccc(Cl)c(F)c1)NC12CC(N3C(=O)c4ccc(Cl)cc4[C@H]3O)(C1)C2 (single isomer, unassigned) [Compound 149] | 250 to 1000 nM |
| O=C(COc1ccc(Cl)c(F)c1)NC12CC(N3C(=O)c4ccc(Cl)cc4[C@@H]3O)(C1)C2 (single isomer, unassigned) [Compound 150] | 1000 to 2000 nM |
| O=C(COc1ccc(Cl)c(F)c1)NC12CC(N3C(=O)c4cc(Cl)ccc4[C@H]3O)(C1)C2 (single isomer, unassigned) [Compound 151] | > 2000 nM |
| O=C(COc1ccc(Cl)c(F)c1)NC12CCC(N3CC[C@@H](c4ccc(Cl)cc4)C3=O)(CC1)C[C@@H]2O (single isomer, unassigned) [Compound 154] | 250 to 1000 nM |
| O=C(COc1ccc(Cl)c(F)c1)NC12CCC(N3CC[C@H](c4ccc(Cl)cc4)C3=O)(CC1)C[C@@H]2O (single isomer, unassigned) [Compound 155] | < 50 nM |
| O=C(COc1ccc(Cl)c(F)c1)NC12CC(N3C[C@H](c4ccc(Cl)c(F)c4)OC3=O)(C1)C2 (single isomer, unassigned) [Compound 156] | 250 to 1000 nM |
| O=C(COc1ccc(Cl)c(F)c1)NC12CC(N3C[C@@H](c4ccc(Cl)c(F)c4)OC3=O)(C1)C2 (single isomer, unassigned) [Compound 157] | 50 to 250 nM |
| O=C(COc1ccc(Cl)c(F)c1)NC12CC(N3CCC(Oc4ccc(Cl)c(F)c4)C3=O)(C1)C2 (centres unmarked) [Compound 100, 2-(4-chloro-3-fluorophenoxy)-N-{3-[3-(4-chloro-3-fluorophenoxy)-2-oxopyrrolidin-1-yl]bicyclo[1.1.1]pentan-1-yl}acetamide] | 50 to 250 nM |
| O=C(COc1ccc(Cl)c(F)c1)NC12CC(N3CCC(Oc4ccc(C(F)(F)F)nc4)C3=O)(C1)C2 (centres unmarked) [Compound 101, 2-(4-chloro-3-fluorophenoxy)-N-[3-(2-oxo-3-{[6-(trifluoromethyl)pyridin-3-yl]oxy}pyrrolidin-1-yl)bicyclo[1.1.1]pentan-1-yl]acetamide] | 250 to 1000 nM |
| Cc1nn(C)c(C)c1OC1CCN(C23CC(NC(=O)COc4ccc(Cl)c(F)c4)(C2)C3)C1=O (centres unmarked) [Compound 104, 2-(4-chloro-3-fluorophenoxy)-N-(3-{2-oxo-3-[(1,3,5-trimethyl-1H-pyrazol-4-yl)oxy]pyrrolidin-1-yl}bicyclo[1.1.1]pentan-1-yl)acetamide] | > 2000 nM |
| Cc1cc(OC2CCN(C34CC(NC(=O)COc5ccc(Cl)c(F)c5)(C3)C4)C2=O)no1 (centres unmarked) [Compound 105, 2-(4-chloro-3-fluorophenoxy)-N-(3-{3-[(5-methyl-1,2-oxazol-3-yl)oxy]-2-oxopyrrolidin-1-yl}bicyclo[1.1.1]pentan-1-yl)acetamide] | > 2000 nM |
| Cn1cc(OC2CCN(C34CC(NC(=O)COc5ccc(Cl)c(F)c5)(C3)C4)C2=O)cn1 (centres unmarked) [Compound 106, 2-(4-chloro-3-fluorophenoxy)-N-(3-{3-[(1-methyl-H-pyrazol-4-yl)oxy]-2-oxopyrrolidin-1-yl}bicyclo[1.1.1]pentan-1-yl)acetamide] | > 2000 nM |
| Cn1nc(C(F)(F)F)cc1OC1CCN(C23CC(NC(=O)COc4ccc(Cl)c(F)c4)(C2)C3)C1=O (centres unmarked) [Compound 107, 2-(4-chloro-3-fluorophenoxy)-N-[3-(3-{[1-methyl-3-(trifluoromethyl)-1H-pyrazol-5-yl]oxy}-2-oxopyrrolidin-1-yl)bicyclo[1.1.1]pentan-1-yl]acetamide] | > 2000 nM |

| Molecule | EC50 |
| --- | --- |
| O=C(COc1ccc(Cl)c(F)c1)NC12CC(N3CCN(c4ccc(Cl)c(F)c4)C3=O)(C1)C2 [Compound 108, 2-(4-chloro-3-fluorophenoxy)-N-{3-[3-(4-chloro-3-fluorophenyl)-2-oxoimidazolidin-1-yl]bicyclo[1.1.1]pentan-1-yl}acetamide] | < 50 nM |
| O=C(COc1ccc(Cl)c(F)c1)NC12CCC(N3CC(c4ccc(Cl)c(F)c4)=CC3=O)(CC1)C[C@@H]2O [Compound 109, 2-(4-chloro-3-fluorophenoxy)-N-{(2S)-4-[4-(4-chloro-3-fluorophenyl)-2-oxo-2,5-dihydro-1H-pyrrol-1-yl]-2-hydroxybicyclo[2.2.2]octan-1-yl}acetamide] | < 50 nM |
| O=C(COc1ccc(Cl)c(F)c1)NC12CC(N3C(=O)OC[C@@H]3c3ccc(Cl)c(Cl)c3)(C1)C2 [Compound 110, 2-(4-chloro-3-fluorophenoxy)-N-{3-[(4S)-4-(3,4-dichlorophenyl)-2-oxo-1,3-oxazolidin-3-yl]bicyclo[1.1.1]pentan-1-yl}acetamide] | > 2000 nM |
| O=C(COc1ccc(Cl)c(Cl)c1)NC12CC(N3CCN(Cc4ccc(Cl)cc4)C3=O)(C1)C2 [Compound 111, N-(3-{3-[(4-chlorophenyl)methyl]-2-oxoimidazolidin-1-yl}bicyclo[1.1.1]pentan-1-yl)-2-(3,4-dichlorophenoxy)acetamide] | > 2000 nM |
| O=C(COc1ccc(Cl)c(F)c1)NC12CC(N3CCC(c4ccc(F)c(F)c4)OC3=O)(C1)C2 (centres unmarked) [Compound 112, 2-(4-chloro-3-fluorophenoxy)-N-{3-[6-(3,4-difluorophenyl)-2-oxo-1,3-oxazinan-3-yl]bicyclo[1.1.1]pentan-1-yl}acetamide] | > 2000 nM |
| O=C(COc1ccc(Cl)c(F)c1)NC12CC(C3=NC(c4ccc(Cl)cc4)CO3)(C1)C2 (centres unmarked) [Compound 113, 2-(4-chloro-3-fluorophenoxy)-N-{3-[4-(4-chlorophenyl)-4,5-dihydro-1,3-oxazol-2-yl]bicyclo[1.1.1]pentan-1-yl}acetamide] | 250 to 1000 nM |
| O=C(COc1ccc(Cl)c(F)c1)NC12CC(N3CCN(c4ccc(Cl)cc4)C3=O)(C1)C2 [Compound 114, 2-(4-chloro-3-fluorophenoxy)-N-{3-[3-(4-chlorophenyl)-2-oxoimidazolidin-1-yl]bicyclo[1.1.1]pentan-1-yl}acetamide] | < 50 nM |
| O=C(COc1ccc(Cl)c(F)c1)NC12CC(N3CCN(c4ccccc4)C3=O)(C1)C2 [Compound 115, 2-(4-chloro-3-fluorophenoxy)-N-[3-(2-oxo-3-phenylimidazolidin-1-yl)bicyclo[1.1.1]pentan-1-yl]acetamide] | 250 to 1000 nM |
| O=C(COc1ccc(Cl)c(F)c1)NC12CC(N3CC(c4ccc(Cl)c(F)c4)OC3=O)(C1)C2 (centres unmarked) [Compound 116, 2-(4-chloro-3-fluorophenoxy)-N-{3-[5-(4-chloro-3-fluorophenyl)-2-oxo-1,3-oxazolidin-3-yl]bicyclo[1.1.1]pentan-1-yl}acetamide] | 50 to 250 nM |
| O=C(COc1ccc(F)c(Cl)c1)NC12CC(N3Cc4ccccc4C3=O)(C1)C2 [Compound 117, 2-(3-chloro-4-fluorophenoxy)-N-[3-(1-oxo-1,3-dihydro-2H-isoindol-2-yl)bicyclo[1.1.1]pentan-1-yl]acetamide] | 50 to 250 nM |
| O=C(CCOc1ccc(Cl)cc1)N[C@H]1CC[C@H](N2CCN(c3cnc(C(F)F)cn3)C2=O)CC1 [Compound 118, 3-(4-chlorophenoxy)-N-[(1r,4r)-4-{3-[5-(difluoromethyl)pyrazin-2-yl]-2-oxoimidazolidin-1-yl}cyclohexyl]propanamide] | > 2000 nM |
| O=C(CCOc1ccc(Cl)c(F)c1)N[C@H]1CC[C@H](N2CCN(c3cnc(C(F)F)cn3)C2=O)CC1 [Compound 119, 3-(4-chloro-3-fluorophenoxy)-N-[(1r,4r)-4-{3-[5-(difluoromethyl)pyrazin-2-yl]-2-oxoimidazolidin-1-yl}cyclohexyl]propanamide] | 250 to 1000 nM |
| O=C(COc1ccc(Cl)c(Cl)c1)N[C@H]1CC[C@H](N2CCN(c3cnc(C(F)F)cn3)C2=O)CC1 [Compound 120, 2-(3,4-dichlorophenoxy)-N-[(1r,4r)-4-{3-[5-(difluoromethyl)pyrazin-2-yl]-2-oxoimidazolidin-1-yl}cyclohexyl]acetamide] | < 50 nM |
| O=C(COc1ccc(Cl)c(F)c1)N[C@H]1CC[C@H](N2CCN(c3cnc(C(F)F)cn3)C2=O)CC1 [Compound 121, 2-(4-chloro-3-fluorophenoxy)-N-[(1r,4r)-4-{3-[5-(difluoromethyl)pyrazin-2-yl]-2-oxoimidazolidin-1-yl}cyclohexyl]acetamide] | < 50 nM |
| O=C(N[C@H]1CC[C@H](N2CCN(c3cnc(C(F)F)cn3)C2=O)CC1)OCc1ccccc1 [Compound 122, benzyl [(1r,4r)-4-{3-[5-(difluoromethyl)pyrazin-2-yl]-2-oxoimidazolidin-1-yl}cyclohexyl]carbamate] | > 2000 nM |
